Experimental data from ChEMBL document CHEMBL5143571, “Design, synthesis and anti-breast cancer evaluation of biaryl pyridine analogues as potent RSK inhibitors” (Bioorg Med Chem Lett, 2022).
Calls of active or inactive are those of the source. The rule behind the calls is not given here.

Experiments:
HCC1806 [1] = assay: Inhibition of RSK in human HCC1806 cells assessed as reduction in YB-1 phosphorylation at Ser102 residue at 5 uM incubated for 12 hrs by western blot analysis; format: cell-based
HCC1806 [2] = assay: Anti-tumor activity against human HCC1806 cells assessed as inhibition of cell proliferation; format: functional, cell-based

SMILES	inhibition (HCC1806 [1])	Activity (HCC1806 [2])
Cc1ccc(-c2ccncc2-c2ccc(O)c(O)c2)c2ccccc12	Active	Active
CN1CCN(c2ccc(-c3ccncc3-c3cc(F)c(O)c(F)c3)cc2)CC1	Active	Active
Clc1ccc(-c2ccncc2-c2ccc(OCc3ccccc3)c(NCc3ccccc3)c2)cc1	Active	
Cc1cc(C)cc(-c2ccncc2-c2ccc(O)c(O)c2)c1	Active	
O=Cc1ccc(-c2ccncc2-c2ccc(OCc3ccccc3)c(OCc3ccccc3)c2)cc1	Active	
